# Test results as given in patent US20200254065A1, “LONG-ACTING GLP-2 ANALOGS” (OPKO Biologics Ltd., priority 2019, published 2020).
# Read-outs that look alike come from different tables or passages of the source. Numbered stars: 1 amine (or outer) side, 2 acyl side, 3 side chain; on linkers, the order of the positions; unused ones are H or OH. Square brackets hold non-standard residues; d marks the D form. Ends that are not written are not given here. Peptide text beside a SMILES is read from it. * marks the point of attachment. X2 = O=C(OCC1c2cc(N[*:1])ccc2-c2ccc(S(=O)(=O)O)cc21)[*:2]; X1 = N[C@@H](CSC1CC(=O)N(CCC(=O)*)C1=O)C(=O)O; Nle = CCCC[C@H](N)C(=O)O
# Key:
# [1] = system: small intestine; experiment: Intestine weight model in rats; type: in vivo, SD rats
# Method: In the pharmacology study, the conjugates were injected subcutaneously twice, on days 1 and 3 at 1 mg/kg (peptide dose) and intestine weight was performed on day 6. In addition to the PEGylated conjugates, GLP-2-Gly2 was injected at the same dose and regimen for comparison. The average of the intestine weight of each group was compared to that of the vehicle group.
# In a different study, several of the PEGylated teduglutide were injected as a single dose at 1 mg/kg and the intestine weight performed on day 6.
# Pharmacology and pharmacokinetic studies were performed with the most promising GLP-2 variants to evaluate their efficacy and longevity, respectively. The intestine weight model in rats was conducted to evaluate efficacy, by measuring percent increase of the intestine weight of treated animals over the vehicle group. In this study, the peptides were injected twice, on days 1 and 3 at 1 mg/kg and the intestine weight was conducted on day 6.
# PEG20-FMS-V6, PEG20-Fmoc-V6 and PEG40-FMS-V6 were injected once at 1 mg/kg dose on day 1, while group D was also injected twice on days 1 & 3 at 1 mg/kg. The intestine weight was performed on day 6.
# Three different reversible PEGylated GLP-2 variants using mutated peptide #4 were injected at 2 mg/kg (peptide dose), once every 6 days for 12 days. On the 12th day the intestine was weighted and compared to the control group. PEG30-FMS-V4 was injected at 0.5 mg/kg as well to evaluate the efficacy dose range.
# In addition to PEG30-FMS-V4 and PEG30-Fmoc-V4 that have been pharmacology evaluated by small intestinal weight evaluation (As shown in Example 5), four other reversible PEGylated variant 4 (“V4”) conjugates and two reversible linker-V4 conjugates were synthesized. All the above were injected to 6 normal SD rats/group once at 2 mg/kg (peptide dose), while on the 6th day, animals were scarified, and the small intestine was weighted followed by histopathology evaluation. […] Therefore, slices from three areas of the intestine (duodenum, jejunum and ilium) were stained with hematoxylin and eosin and at least 7 Crypts+Villi length/slice were measured. The averaged Villi+Crypt length of each treatment group (n=6) was compared to the vehicle group (negative control) and calculated as percentage increase over vehicle.
# Additional studies were conducted to evaluate the efficacy of the V4 peptide and the reversible MAL-FMS-V4. The long acting effect of V4 and the conjugates were evaluated at Day 6 and Day 10 following treatment (Study reference 15203). All test groups (n=9) were injected SC with 2 mg/kg peptide content at Day 1. At Days 6 and 10, animals were sacrificed and the small intestine underwent histopathology evaluation (6 animals for Day 6, 3 animals for Day 10). FIGS. 12 and 13 show the pharmacology effect of different V4 conjugates and Apraglutide and Glepaglutide as measured by the percent increase of small intestine weight and crypts plus villi length over vehicle, respectively.
# To further evaluate the pharmacology efficacy of V4 and Cys-FMS-V4, an experiment was performed to test their acute and prolonged effect on the small intestine (Study reference 15205). In addition, V4 and Cys-FMS-V4 were administrated as a single SC injection on Day 1 at 3 different doses (0.5, 2.0 or 8.0 mg/kg peptide content, 6 rats per group) to assess the dose dependence effect. The pharmacological effect on small intestine weight and villi plus crypts length was measured at Days 3, 7 and 14, and the results are presented in FIGS. 15 and 16. […] It should be noted that this acute response was higher for V4 compared to Cys-FMS-V4 at all 3 dose levels.
# [2] = PK after single SC injection in rats (LC-MS/MS); conditions: rat, in vivo, 2 mg/kg
# Method: To support the pharmacodynamic effects of V4 and Cys-FMS-V4 as detailed in Example 9, a pharmacokinetic analysis was also conducted. In this study (Study reference 15204), all animals were injected SC on Day 1 with 2 mg/kg peptide content of V4, Cys-FMS-V4 and Apraglutide. Blood samples were collected at 2, 8, 12, 24, 36, 48, 72, 96, 120 hours, and Days 7, 8, 9, 10, 11, 12, 13 and 14 post-dose administration and subsequently taken to LC-MS/MS analysis to determine plasma levels of each compound. For Cys-FMS-V4, a 2-analyte method was applied to determine the plasma concentrations of both the full conjugate and the V4 that was hydrolyzed from it (V4 hydrolyzed). Plasma concentrations (μM), as measured by using the LC-MS/MS method, of V4 peptide, Cys-FMS-V4, hydrolyzed V4, and Apraglutide are presented in FIG. 17.
# [3] = PK after single IV injection in rats; type: in vivo
# From the text: Blood samples were collected at 0.5, 2, 4, 8, 12, 24, 36, 48, 72, 96- and 120-hours post-dose administration.
# [4] = 2-compartmental pharmacokinetic modelling (MONOLIX 2018R2); type: in vivo, rat; conditions: for half-life: rat, in vivo
# Method: An in-depth PK modeling was performed to address the unexpected differences in half life, distribution, and pharmacological effect between V4, Cys-FMS-V4, and Apraglutide in the rat model. The analysis was performed with MONOLIX 2018R2 suite using a 2-compartmental pharmacokinetic model. The data used in this analysis was comprised from 3 independent experiments (data is presented as their average). The concentration versus time data of V4 that was formed from the Cys-FMS-V4 conjugate (the hydrolyzed peptide) was described appropriately using the values of the pharmacokinetic parameters of V4 peptide. Thus, the disposition of the hydrolyzed V4 was identical to that of the V4 peptide following the IV and SC administration.
# The pharmacokinetics of Apraglutide in our studies was determined after SC administration. […] Based on this assumption, the values of volumes of distribution and clearance (Vpept, Vss, Vbeta, and CL) were calculated for Apraglutide (Table 13). The values of the other parameters of Apraglutide in Table 14 (the rate constants and the half-lives) are not dependent on this assumption.
# [5] = SD rats, SC on days 1 and 3 at 1 mg/kg peptide dose (2 injections), intestine weight on day 6
# [6] = single dose 1 mg/kg peptide, intestine weight on day 6, average of two studies
# [7] = 0.5 mg/kg peptide dose once every 6 days for 12 days, weighed on 12th day
# [8] = 2 mg/kg peptide dose once every 6 days for 12 days, weighed on 12th day
# [9] = rats, single IV 2 mg/kg peptide content
compound,measurement,setting,value
"PEG30-NRF-V4 (HGEGSFSDE[Nle]NTILDLLAARDFINWLIQTKITD-NH2; also: PEG30-NRF conjugate, place not given here)",Avg. small intestine weight (gr),"[1]; normal SD rats, injected once at 2 mg/kg peptide dose, 6th day",4.0 gr
same,Small intestine weight increase over vehicle (%),"[1]; normal SD rats, injected once at 2 mg/kg peptide dose, 6th day, MAL-FMS-V4 compared to Vehicle 2",−8.0%
"PEG30-FMS-(GLP-2-Gly2): teduglutide reversibly PEGylated, PEG30 via FMS linker; heterogenous mixture of N terminus and Lys30 attachment",Average Intestine weight (gr),[1]; [5],9.5 gr
same,Increase of intestine weight over vehicle (%),[1]; [5],73%
same,Increase of intestine weight over vehicle (%),[1]; [6],34%
"PEG40-FMS-(GLP-2-Gly2): teduglutide reversibly PEGylated, PEG40 via FMS linker; heterogenous mixture of N terminus and Lys30 attachment",Average Intestine weight (gr),[1]; [5],9.3 gr
same,Increase of intestine weight over vehicle (%),[1]; [5],70%
same,Increase of intestine weight over vehicle (%),[1]; [6],27%
"PEG40-EMCS-(GLP-2-Gly2): non-reversible PEGylation (PEG40, EMCS) conjugated to GLP-2-Gly2",Average Intestine weight (gr),[1]; [5],6.6 gr
same,Increase of intestine weight over vehicle (%),[1]; [5],19%
"PEG30-FMS-V4 (HGEGSFSDE[Nle]NTILDLLAARDFINWLIQTKITD-NH2; also: PEG30-FMS conjugate, place not given here)",Average Intestine weight (gr),[1]; [7],5.2 gr
same,Increase of intestine weight over vehicle (%),[1]; [7],−14%
same,Average Intestine weight (gr),[1]; [8],6.9 gr
same,Increase of intestine weight over vehicle (%),[1]; [8],15%
CCCC[C@H](NC(=O)[C@H](CCC(=O)O)NC(=O)[C@H](CC(=O)O)NC(=O)[C@H](CO)NC(=O)[C@H](Cc1ccccc1)NC(=O)[C@H](CO)NC(=O)CNC(=O)[C@H](CCC(=O)O)NC(=O)CNC(=O)[C@@H](N)Cc1c[nH]cn1)C(=O)N[C@@H](CC(N)=O)C(=O)N[C@H](C(=O)N[C@H](C(=O)N[C@@H](CC(C)C)C(=O)N[C@@H](CC(=O)O)C(=O)N[C@@H](CC(C)C)C(=O)N[C@@H](CC(C)C)C(=O)N[C@@H](C)C(=O)N[C@@H](C)C(=O)N[C@@H](CCCNC(=N)N)C(=O)N[C@@H](CC(=O)O)C(=O)N[C@@H](Cc1ccccc1)C(=O)N[C@H](C(=O)N[C@@H](CC(N)=O)C(=O)N[C@@H](Cc1c[nH]c2ccccc12)C(=O)N[C@@H](CC(C)C)C(=O)N[C@H](C(=O)N[C@@H](CCC(N)=O)C(=O)N[C@H](C(=O)N[C@@H](CCCCN)C(=O)N[C@H](C(=O)N[C@H](C(=O)N[C@@H](CC(=O)O)C(N)=O)[C@@H](C)O)[C@@H](C)CC)[C@@H](C)O)[C@@H](C)CC)[C@@H](C)CC)[C@@H](C)CC)[C@@H](C)O [V4 (hydrolyzed)] (H-HGEGSFSDE[Nle]NTILDLLAARDFINWLIQTKITD-NH2),Cl/F obs,[2],0.034 (μmol/kg)/(μmol/L)/h
same,Vz/F_obs,[2],2.19 (μmol/kg)/(μmol/L)
same,Cl/F_obs,"[3]; rat, in vivo, iv, 2 mg/kg",0.042 (μmol/kg)/(μmol/L)/h
same,Vz/F_obs,"[3]; rat, in vivo, iv, 2 mg/kg",0.487 (μmol/kg)/(μmol/L)
"PEG40-Fmoc-(GLP-2-Gly2): teduglutide reversibly PEGylated, PEG40 via Fmoc linker; heterogenous mixture of N terminus and Lys30 attachment",Average Intestine weight (gr),[1]; [8],6.9 gr
same,Increase of intestine weight over vehicle (%),[1]; [8],14%
same,Average Intestine weight (gr),[1]; [5],9.4 gr
same,Increase of intestine weight over vehicle (%),[1]; [5],72%
same,Increase of intestine weight over vehicle (%),[1]; [6],31%
"PEG(Branch20)-FMS-(GLP-2-Gly2): teduglutide reversibly PEGylated with branched PEG via FMS linker; tables say Branch20, b275 Branched30",Average Intestine weight (gr),[1]; [5],7.8 gr
same,Increase of intestine weight over vehicle (%),[1]; [5],42%
CCCC[C@H](NC(=O)[C@H](CCC(=O)O)NC(=O)[C@H](CC(=O)O)NC(=O)[C@H](CO)NC(=O)[C@H](Cc1ccccc1)NC(=O)[C@H](CO)NC(=O)CNC(=O)[C@H](CCC(=O)O)NC(=O)CNC(=O)[C@H](Cc1c[nH]cn1)NC(=O)OCC1c2cc(NC(=O)CCN3C(=O)CC(SC[C@H](N)C(=O)O)C3=O)ccc2-c2ccc(S(=O)(=O)O)cc21)C(=O)N[C@@H](CC(N)=O)C(=O)N[C@H](C(=O)N[C@H](C(=O)N[C@@H](CC(C)C)C(=O)N[C@@H](CC(=O)O)C(=O)N[C@@H](CC(C)C)C(=O)N[C@@H](CC(C)C)C(=O)N[C@@H](C)C(=O)N[C@@H](C)C(=O)N[C@@H](CCCNC(=N)N)C(=O)N[C@@H](CC(=O)O)C(=O)N[C@@H](Cc1ccccc1)C(=O)N[C@H](C(=O)N[C@@H](CC(N)=O)C(=O)N[C@@H](Cc1c[nH]c2ccccc12)C(=O)N[C@@H](CC(C)C)C(=O)N[C@H](C(=O)N[C@@H](CCC(N)=O)C(=O)N[C@H](C(=O)N[C@@H](CCCCN)C(=O)N[C@H](C(=O)N[C@H](C(=O)N[C@@H](CC(=O)O)C(N)=O)[C@@H](C)O)[C@@H](C)CC)[C@@H](C)O)[C@@H](C)CC)[C@@H](C)CC)[C@@H](C)CC)[C@@H](C)O (stereo partly drawn) [Cys-FMS-V4] (X1-[X2]HGEGSFSDE[Nle]NTILDLLAARDFINWLIQTKITD-NH2),Fraction of V4 released from the conjugate (AUC ratio),"[3]; rats, single IV 2 mg/kg",~35%
same,Cl/F_obs,[3]; [9],0.064 (μmol/kg)/(μmol/L)/h
same,Vz/F_obs,[3]; [9],0.260 (μmol/kg)/(μmol/L)
same,Detectability in blood after IV administration,"[3]; rats, single IV 2 mg/kg, 24 hours post injection",could not be detected 24 hours post injection
same,Fraction of Cys-FMS-V4 converted to V4 following SC administration,"[4]; 53.8% SC bioavailability, 67.9% hydrolyzed to V4",approximately 36.5%
same,Vconj,[4]; Cys-FMS-V4 conjugate,0.119 L/kg
same,ka—conj,[4]; Cys-FMS-V4 conjugate,0.0717 h⁻¹
same,kconje,[4]; Cys-FMS-V4 conjugate,0.207 h⁻¹
same,kh,[4]; Cys-FMS-V4 conjugate,0.438 h⁻¹
same,Fconj,"[4]; Cys-FMS-V4 conjugate, SC bioavailability fraction",0.538
same,% to V4,[4]; absorbed Cys-FMS-V4 hydrolyzed to V4,67.9%
same,half-life,"[4]; Cys-FMS-V4 conjugate, Table 15, read-out: t1/2 absorption (converted)",9.67 h
same,half-life,"[4]; Cys-FMS-V4 conjugate, read-out: t1/2 hydrolysis (converted)",1.58 h
same,half-life,"[4]; Cys-FMS-V4 conjugate, read-out: t1/2 other pathways (converted)",3.35 h
PEGBranched40-FMS-(GLP-2-Gly2): teduglutide reversibly PEGylated with branched PEG40 via FMS linker,Average Intestine weight (gr),[1]; [5],8.1 gr
same,Increase of intestine weight over vehicle (%),[1]; [5],48%
same,Increase of intestine weight over vehicle (%),[1]; [6],22%
